pEC50, pKi: −log10 of the molar value. Where two headings read alike, the source gives them in different places.
Tests used:
[1] = biological target: JAK2 (Homo sapiens (Human), UniProt O60674); test: JAK2 activity inhibition assay (radioactive kinase assay / Caliper assay); format: biochemical
In short: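 Reaction ran 25 min at 28° C after adding peptide/ATP mix (10 mM MgCl2) to compound and enzyme in HEPES pH 7.5 buffer with Brij-35, Triton and EGTA. EDTA stop, then microfluidic off-chip separation quantified phosphorylated peptide.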

[2] = system: JAK2-pSTAT5; test: GM-CSF induced pSTAT5 in human PBMC; format: cell-based; conditions: read-out: JAK2-pSTAT5 EC50
Method: Human PBMC are isolated from buffy coat and are stored frozen for assays as needed. […] 15 μl of compound or DMSO is added to the well at the desired concentrations and incubated at 1 hr at 37 C. 15 μl of stimulus (final concentration of 1.7 ng/mL IL-12) is added for 30 minutes prior to pSTAT4 and total STAT4 analysis using cell lysates prepared and analyzed by MSD reagents as per manufacturer protocol. The final DMSO concentration of compound in the assay is 0.1%.
Cells are prepared for analysis as in the above procedure and 15 μl of GM-CSF (final concentration 5 ng/mL) is added for 20 minutes prior to pSTAT5 and total STAT5 analysis using cell lysates prepared and analyzed by MSD reagents as per manufacturer protocol. The final DMSO concentration of compound in the assay is 0.1%.

[3] = system: Tyk2-pSTAT4; test: IL-12 induced pSTAT4 in human PBMC; format: cell-based; conditions: read-out: Tyk2-pSTAT4 EC50
Method: Human PBMC are isolated from buffy coat and are stored frozen for assays as needed. Cells for assay are thawed and resuspended in complete media containing serum, then cells are diluted to 1.67 E6 cells/ml so that 120 μl per well is 200,000 cells. 15 μl of compound or DMSO is added to the well at the desired concentrations and incubated at 1 hr at 37 C. 15 μl of stimulus (final concentration of 1.7 ng/mL IL-12) is added for 30 minutes prior to pSTAT4 and total STAT4 analysis using cell lysates prepared and analyzed by MSD reagents as per manufacturer protocol. The final DMSO concentration of compound in the assay is 0.1%.

[4] = biological target: TYK2 (Homo sapiens (Human), UniProt P29597); test: Tyk2 activity inhibition assay (radioactive kinase assay / Caliper assay); format: biochemical
Sequence of TYK2 (P29597 whole entry): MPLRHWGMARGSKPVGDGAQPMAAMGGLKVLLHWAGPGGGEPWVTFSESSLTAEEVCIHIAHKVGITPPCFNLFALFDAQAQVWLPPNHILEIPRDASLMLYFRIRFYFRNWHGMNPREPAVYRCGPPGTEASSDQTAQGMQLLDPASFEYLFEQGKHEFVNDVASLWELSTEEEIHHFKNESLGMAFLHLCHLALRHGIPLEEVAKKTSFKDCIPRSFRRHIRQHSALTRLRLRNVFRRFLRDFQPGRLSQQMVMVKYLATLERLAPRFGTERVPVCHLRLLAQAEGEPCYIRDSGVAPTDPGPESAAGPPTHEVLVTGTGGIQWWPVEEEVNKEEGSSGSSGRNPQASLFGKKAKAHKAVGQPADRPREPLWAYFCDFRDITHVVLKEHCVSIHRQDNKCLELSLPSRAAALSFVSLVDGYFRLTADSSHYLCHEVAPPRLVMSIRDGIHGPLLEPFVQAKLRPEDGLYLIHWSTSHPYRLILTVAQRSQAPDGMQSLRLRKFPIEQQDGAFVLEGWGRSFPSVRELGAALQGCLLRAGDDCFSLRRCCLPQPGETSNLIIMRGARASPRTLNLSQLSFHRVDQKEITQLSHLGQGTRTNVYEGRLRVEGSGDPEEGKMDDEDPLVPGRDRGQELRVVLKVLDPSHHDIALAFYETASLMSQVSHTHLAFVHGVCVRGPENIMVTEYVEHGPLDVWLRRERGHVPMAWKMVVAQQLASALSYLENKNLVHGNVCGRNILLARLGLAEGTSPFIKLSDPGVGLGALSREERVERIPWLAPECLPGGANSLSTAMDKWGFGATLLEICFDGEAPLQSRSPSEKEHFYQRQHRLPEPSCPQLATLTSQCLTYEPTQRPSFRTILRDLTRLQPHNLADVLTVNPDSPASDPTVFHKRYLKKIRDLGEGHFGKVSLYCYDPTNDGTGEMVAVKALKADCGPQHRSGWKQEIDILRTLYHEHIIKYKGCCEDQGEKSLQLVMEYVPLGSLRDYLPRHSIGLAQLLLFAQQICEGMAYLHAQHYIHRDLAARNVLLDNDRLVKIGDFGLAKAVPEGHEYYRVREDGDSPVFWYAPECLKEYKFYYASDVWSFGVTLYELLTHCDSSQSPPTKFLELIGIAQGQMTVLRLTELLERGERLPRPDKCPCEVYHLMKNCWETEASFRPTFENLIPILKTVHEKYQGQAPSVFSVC
In short: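 Two formats were used. Caliper off-chip mobility shift read phosphorylated peptide 30 (3 uM) after 25 min at 28° C with 9.75 nM TYK2 and ATP at 16 uM or 1 mM. Radioactive assay: 10 μM 33P-ATP, 20 μM peptide, 120 min room temp, P81 filter counting.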

[5] = GM-CSF induced pSTAT5, human PBMC
[6] = IL-12 induced pSTAT4, human PBMC

Sequence of JAK2 (O60674 whole entry): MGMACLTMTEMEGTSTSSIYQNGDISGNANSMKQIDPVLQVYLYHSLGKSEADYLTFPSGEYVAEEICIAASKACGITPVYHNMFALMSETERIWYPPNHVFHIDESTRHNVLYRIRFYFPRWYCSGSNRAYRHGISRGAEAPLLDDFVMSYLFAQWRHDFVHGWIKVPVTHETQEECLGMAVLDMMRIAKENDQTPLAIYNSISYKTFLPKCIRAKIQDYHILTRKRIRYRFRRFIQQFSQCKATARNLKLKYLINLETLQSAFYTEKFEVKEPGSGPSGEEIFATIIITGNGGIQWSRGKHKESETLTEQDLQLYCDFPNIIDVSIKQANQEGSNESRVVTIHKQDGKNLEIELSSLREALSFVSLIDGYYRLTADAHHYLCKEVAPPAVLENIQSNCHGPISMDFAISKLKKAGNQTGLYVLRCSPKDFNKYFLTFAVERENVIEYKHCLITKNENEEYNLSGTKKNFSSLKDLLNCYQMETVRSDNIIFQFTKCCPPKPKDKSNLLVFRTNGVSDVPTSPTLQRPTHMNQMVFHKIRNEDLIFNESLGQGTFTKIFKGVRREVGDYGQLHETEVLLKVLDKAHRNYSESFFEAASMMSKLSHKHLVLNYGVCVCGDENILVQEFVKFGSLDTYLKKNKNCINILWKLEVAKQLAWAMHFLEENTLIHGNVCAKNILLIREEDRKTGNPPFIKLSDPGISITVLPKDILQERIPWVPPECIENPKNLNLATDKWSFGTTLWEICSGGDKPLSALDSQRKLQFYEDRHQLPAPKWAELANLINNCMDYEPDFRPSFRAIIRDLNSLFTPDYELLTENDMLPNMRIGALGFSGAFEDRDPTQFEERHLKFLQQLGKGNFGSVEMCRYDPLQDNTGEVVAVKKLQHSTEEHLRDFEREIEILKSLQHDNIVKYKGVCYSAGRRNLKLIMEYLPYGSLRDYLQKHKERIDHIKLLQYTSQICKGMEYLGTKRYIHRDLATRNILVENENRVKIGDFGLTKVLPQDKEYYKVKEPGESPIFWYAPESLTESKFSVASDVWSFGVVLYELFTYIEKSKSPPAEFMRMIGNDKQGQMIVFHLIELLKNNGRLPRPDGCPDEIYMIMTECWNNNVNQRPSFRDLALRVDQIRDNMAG

| Structure (SMILES) | pKi ([1]; read-out: JAK2 Ki) | pEC50 [2, 5] | pEC50 [3, 6] | pKi [4] | pEC50 ([2]; Homo sapiens, PBMC) | pEC50 ([3]; Homo sapiens, PBMC) | pKi [1] |
| --- | --- | --- | --- | --- | --- | --- | --- |
| C[C@H]1COCCN1C(=O)Cc1ccc(Nc2nc(-c3c(F)cccc3F)nc3c2C(=O)NC3)cc1 [Compound I-64, (S)-2-(2,6-difluorophenyl)-4-((4-(2-(3-methylmorpholino)-2-oxoethyl)phenyl)amino)-6,7-dihydro-5H-pyrrolo[3,4-d]pyrimidin-5-one] | 6.00 to 7.00 | < 4.70 | > 5.70 | > 8.00 |  |  |  |
| CC(C)NC(=O)c1ccc(Nc2cc(-c3c(F)cccc3F)nc3c2C(=O)NC3)cc1 [Compound I-232, 4-((2-(2,6-difluorophenyl)-5-oxo-6,7-dihydro-5H-pyrrolo[3,4-b]pyridin-4-yl)amino)-N-isopropylbenzamide] | 7.00 to 8.00 |  |  | > 8.00 | 4.70 to 5.70 | > 5.70 |  |
| O=C1NCc2nc(-c3c(F)cccc3F)nc(Nc3ccc([C@H]4CCNC4=O)cc3)c21 [Compound I-86, (R)-2-(2,6-difluorophenyl)-4-((4-(2-oxopyrrolidin-3-yl)phenyl)amino)-6,7-dihydro-5H-pyrrolo[3,4-d]pyrimidin-5-one] | 7.00 to 8.00 | < 4.70 | > 5.70 | > 8.00 |  |  |  |
| COc1ccc(Nc2cc(-c3c(F)cccc3F)nc3c2C(=O)NC3)nc1OC [Compound I-170, 2-(2,6-difluorophenyl)-4-((5,6-dimethoxypyridin-2-yl)amino)-6,7-dihydro-5H-pyrrolo[3,4-b]pyridin-5-one] | 7.00 to 8.00 | 4.70 to 5.70 | > 5.70 | > 8.00 |  |  |  |
| CCNC(=O)Cc1ccc(Nc2cc(-c3c(F)cccc3F)nc3c2C(=O)NC3)nc1 [Compound I-88, 2-(6-((2-(2,6-difluorophenyl)-5-oxo-6,7-dihydro-5H-pyrrolo[3,4-b]pyridin-4-yl)amino)pyridin-3-yl)-N-ethylacetamide] | 6.00 to 7.00 |  |  | 7.00 to 8.00 | > 5.70 | > 5.70 |  |
| C[C@@H]1COC[C@@H](C)N1c1ccc(Nc2cc(-c3c(F)cccc3F)nc3c2C(=O)NC3)nc1 [Compound I-263, 2-(2,6-difluorophenyl)-4-((5-((3R,5R)-3,5-dimethylmorpholino)pyridin-2-yl)amino)-6,7-dihydro-5H-pyrrolo[3,4-b]pyridin-5-one] | > 8.00 | > 5.70 | > 5.70 | > 8.00 |  |  |  |
| O=C1NCc2nc(-c3c(F)cccc3F)nc(Nc3ccc(C4CCN(C5CCC5)C4=O)cc3)c21 (stereo not drawn) [Compound I-117, 4-((4-(1-cyclobutyl-2-oxopyrrolidin-3-yl)phenyl)amino)-2-(2,6-difluorophenyl)-6,7-dihydro-5H-pyrrolo[3,4-d]pyrimidin-5-one] | 6.00 to 7.00 |  |  | > 8.00 | < 4.70 | > 5.70 |  |
| O=C1NCc2nc(-c3c(F)cccc3F)cc(Nc3ccc(N4CCC(O)CC4)cn3)c21 [Compound I-147, 2-(2,6-difluorophenyl)-4-((5-(4-hydroxypiperidin-1-yl)pyridin-2-yl)amino)-6,7-dihydro-5H-pyrrolo[3,4-b]pyridin-5-one] | 7.00 to 8.00 | > 5.70 | > 5.70 | > 8.00 |  |  |  |
| O=C(NCC(F)(F)F)c1ccc(Nc2cc(-c3c(F)cccc3F)nc3c2C(=O)NC3)nc1 [Compound I-140, 6-((2-(2,6-difluorophenyl)-5-oxo-6,7-dihydro-5H-pyrrolo[3,4-b]pyridin-4-yl)amino)-N-(2,2,2-trifluoroethyl)nicotinamide] | 7.00 to 8.00 | 4.70 to 5.70 | > 5.70 | > 8.00 |  |  |  |
| C[C@@H](C(=O)N1CCCCC1)c1ccc(Nc2nc(-c3c(F)cccc3F)nc3c2C(=O)NC3)cc1 [Compound I-207, (R)-2-(2,6-difluorophenyl)-4-((4-(1-oxo-1-(piperidin-1-yl)propan-2-yl)phenyl)amino)-6,7-dihydro-5H-pyrrolo[3,4-d]pyrimidin-5-one] | 6.00 to 7.00 |  |  | > 8.00 | 4.70 to 5.70 | > 5.70 |  |
| CCNC(=O)Cc1ccc(Nc2nc(-c3ccccc3Cl)nc3c2C(=O)NC3)cc1 [Compound I-20, 2-(4-((2-(2-chlorophenyl)-5-oxo-6,7-dihydro-5H-pyrrolo[3,4-d]pyrimidin-4-yl)amino)phenyl)-N-ethylacetamide] | 6.00 to 7.00 |  | > 5.70 | 7.00 to 8.00 | < 4.70 |  |  |
| COc1ccc(Nc2cc(-c3c(F)cccc3F)nc3c2C(=O)NC3)nc1 [Compound I-167, 2-(2,6-difluorophenyl)-4-((5-methoxypyridin-2-yl)amino)-6,7-dihydro-5H-pyrrolo[3,4-b]pyridin-5-one] | 6.00 to 7.00 | < 4.70 | > 5.70 | > 8.00 |  |  |  |
| CC(=O)Nc1ccc(Nc2cc(-c3c(F)cccc3F)nc3c2C(=O)NC3)nc1 [Compound I-237, N-(6-((2-(2,6-difluorophenyl)-5-oxo-6,7-dihydro-5H-pyrrolo[3,4-b]pyridin-4-yl)amino)pyridin-3-yl)acetamide] | 7.00 to 8.00 | < 4.70 | > 5.70 | > 8.00 |  |  |  |
| O=C1NCc2nc(-c3c(F)cccc3F)cc(Nc3ccc(N4CC(O)C4)cn3)c21 [Compound I-214, 2-(2,6-difluorophenyl)-4-((5-(3-hydroxyazetidin-1-yl)pyridin-2-yl)amino)-6,7-dihydro-5H-pyrrolo[3,4-b]pyridin-5-one] | 7.00 to 8.00 | 4.70 to 5.70 | > 5.70 | > 8.00 |  |  |  |
| O=C1NCc2nc(-c3c(F)cccc3F)nc(Nc3ccc(CC(=O)N4CCN(CC(F)F)CC4)cc3)c21 [Compound I-78, 4-((4-(2-(4-(2,2-difluoroethyl)piperazin-1-yl)-2-oxoethyl)phenyl)amino)-2-(2,6-difluorophenyl)-6,7-dihydro-5H-pyrrolo[3,4-d]pyrimidin-5-one] |  |  |  | > 8.00 | < 4.70 | > 5.70 | 7.00 to 8.00 |
| CC(C)(O)CN1CCC(c2ccc(Nc3nc(-c4c(F)cccc4F)nc4c3C(=O)NC4)cc2)C1=O (stereo not drawn) [Compound I-161, 2-(2,6-difluorophenyl)-4-((4-(1-(2-hydroxy-2-methylpropyl)-2-oxopyrrolidin-3-yl)phenyl)amino)-6,7-dihydro-5H-pyrrolo[3,4-d]pyrimidin-5-one] | 6.00 to 7.00 | 4.70 to 5.70 | > 5.70 | > 8.00 |  |  |  |
| CC(C)(C(=O)N1CCCC1)c1ccc(Nc2nc(-c3c(F)cccc3F)nc3c2C(=O)NC3)cc1 [Compound I-196, 2-(2,6-difluorophenyl)-4-((4-(2-methyl-1-oxo-1-(pyrrolidin-1-yl)propan-2-yl)phenyl)amino)-6,7-dihydro-5H-pyrrolo[3,4-d]pyrimidin-5-one] | 6.00 to 7.00 | < 4.70 | > 5.70 | > 8.00 |  |  |  |
| O=C1NCc2nc(-c3c(F)cccc3F)nc(Nc3ccc(Cn4ccnn4)cc3)c21 [Compound I-128, 4-((4-((1H-1,2,3-triazol-1-yl)methyl)phenyl)amino)-2-(2,6-difluorophenyl)-6,7-dihydro-5H-pyrrolo[3,4-d]pyrimidin-5-one] | 6.00 to 7.00 |  |  | > 8.00 | < 4.70 | > 5.70 |  |
| CN1CCC(C)(c2ccc(Nc3nc(-c4c(F)cccc4F)nc4c3C(=O)NC4)cc2)C1=O (stereo not drawn) [Compound I-150, 2-(2,6-difluorophenyl)-4-((4-(1,3-dimethyl-2-oxopyrrolidin-3-yl)phenyl)amino)-6,7-dihydro-5H-pyrrolo[3,4-d]pyrimidin-5-one] | 7.00 to 8.00 | 4.70 to 5.70 | > 5.70 | > 8.00 |  |  |  |
| CN1CCN(c2ccc(Nc3cc(-c4c(F)cccc4F)nc4c3C(=O)NC4)nc2)CC1 [Compound I-163, 2-(2,6-difluorophenyl)-4-((5-(4-methylpiperazin-1-yl)pyridin-2-yl)amino)-6,7-dihydro-5H-pyrrolo[3,4-b]pyridin-5-one] | 7.00 to 8.00 | 4.70 to 5.70 | > 5.70 | > 8.00 |  |  |  |
| O=C1NCc2nc(-c3c(F)cccc3Cl)nc(Nc3ccc([C@H]4CCNC4=O)cc3)c21 [Compound I-114, (R)-2-(2-chloro-6-fluorophenyl)-4-((4-(2-oxopyrrolidin-3-yl)phenyl)amino)-6,7-dihydro-5H-pyrrolo[3,4-d]pyrimidin-5-one] | 6.00 to 7.00 | 4.70 to 5.70 | > 5.70 | > 8.00 |  |  |  |

From patent US10196390B2, “TYK2 inhibitors and uses thereof” (Nimbus Lakshmi, Inc., priority 2014, dated 2019)
